In the supplement of paper PMC13380429:

Key:
Settings in all cases: 72 h
Caco-2 [1] = test: relative viability EC50 (midpoint between 100% and the lowest measured viability); higher = less toxic
Calu-3 [2] = test: as above
HepG2 [3] = test: as above
U2OS [4] = test: as above
Vero E6 [5] = test: as above
Caco-2 [6] = test: drug sensitivity score (DSS) for viability; higher = more toxic; extreme values may be limits of the assay
Calu-3 [7] = test: as above
HepG2 [8] = test: as above
U2OS [9] = test: as above
Vero E6 [10] = test: as above
Caco-2 [11] = test: cell viability relative to DMSO; higher = less toxic
Calu-3 [12] = test: as above
HepG2 [13] = test: as above
U2OS [14] = test: as above
Vero E6 [15] = test: as above

Row | Structure (SMILES) | relative viability EC50 (Caco-2 [1]) [µM] | relative viability EC50 (Calu-3 [2]) [µM] | relative viability EC50 (HepG2 [3]) [µM] | relative viability EC50 (U2OS [4]) [µM] | relative viability EC50 (Vero E6 [5]) [µM] | drug sensitivity score (Caco-2 [6]) | drug sensitivity score (Calu-3 [7]) | drug sensitivity score (HepG2 [8]) | drug sensitivity score (U2OS [9]) | drug sensitivity score (Vero E6 [10]) | cell viability (Caco-2 [11]; 1 nM) [%] | cell viability (Caco-2 [11]; 10 nM) [%] | cell viability (Caco-2 [11]; 100 nM) [%] | cell viability (Caco-2 [11]; 1000 nM) [%] | cell viability (Caco-2 [11]; 10000 nM) [%] | cell viability (Calu-3 [12]; 1 nM) [%] | cell viability (Calu-3 [12]; 10 nM) [%] | cell viability (Calu-3 [12]; 100 nM) [%] | cell viability (Calu-3 [12]; 1000 nM) [%] | cell viability (Calu-3 [12]; 10000 nM) [%] | cell viability (HepG2 [13]; 1 nM) [%] | cell viability (HepG2 [13]; 10 nM) [%] | cell viability (HepG2 [13]; 100 nM) [%] | cell viability (HepG2 [13]; 1000 nM) [%] | cell viability (HepG2 [13]; 10000 nM) [%] | cell viability (U2OS [14]; 1 nM) [%] | cell viability (U2OS [14]; 10 nM) [%] | cell viability (U2OS [14]; 100 nM) [%] | cell viability (U2OS [14]; 1000 nM) [%] | cell viability (U2OS [14]; 10000 nM) [%] | cell viability (Vero E6 [15]; 1 nM) [%] | cell viability (Vero E6 [15]; 10 nM) [%] | cell viability (Vero E6 [15]; 100 nM) [%] | cell viability (Vero E6 [15]; 1000 nM) [%] | cell viability (Vero E6 [15]; 10000 nM) [%]
1 | CC(C)n1cnc2c(C(=O)N[C@H]3CN4CCC3CC4)cc(Cl)cc21 | > 10 | > 10 | > 10 | > 10 | > 10 | 0 | 0 | 0 | 0 | 0 | 106 | 106 | 94.4 | 101 | 94.9 | 93.9 | 101 | 84.9 | 92.9 | 90.6 | 116 | 102 | 104 | 98.2 | 97.6 | 104 | 103 | 97.1 | 105 | 97.8 | 100 | 95.8 | 97.5 | 94.9 | 100
2 | OCC(Br)(Br)Br [tribromoethanol] | > 10 | > 10 | > 10 | > 10 | > 10 | 0 | 0 | 0.5 | 0 | 0 | 81.4 | 116 | 92.7 | 98.8 | 107 | 91.4 | 95.9 | 98.3 | 106 | 94.2 | 99.3 | 102 | 102 | 97 | 85.4 | 95.3 | 98.3 | 96.7 | 98.8 | 101 | 106 | 96.3 | 108 | 87.7 | 99.9
3 | O=C(O)[C@H]1O[C@@H](Oc2cc3oc(-c4ccccc4)cc(=O)c3c(O)c2O)[C@H](O)[C@@H](O)[C@@H]1O [baicalin] | > 10 | > 10 | – | > 10 | > 10 | 0 | 0 | – | 0 | 0 | 109 | 99 | 95.7 | 93.3 | 97.5 | 103 | 98.5 | 90.4 | 104 | 109 | – | – | – | – | – | 105 | 93.2 | 104 | 101 | 91.8 | 99.7 | 103 | 102 | 103 | 102
4 | CCOc1nc2cccc(C(=O)OC(C)OC(=O)OC3CCCCC3)c2n1Cc1ccc(-c2ccccc2-c2nn[nH]n2)cc1 (configuration not stated) [candesartan-cilexetil] | > 10 | > 10 | > 10 | > 10 | > 10 | 0.1 | 0 | 0 | 0 | 0 | 95.6 | 100 | 91.4 | 101 | 86.5 | 93.1 | 105 | 99.5 | 105 | 105 | 98.3 | 103 | 104 | 102 | 100 | 93.7 | 106 | 93.6 | 90.9 | 92.7 | 107 | 106 | 109 | 104 | 99.1
5 | CC(C)NCCCn1c(Sc2cc3c(cc2I)OCO3)nc2c(N)ncnc21 [PU-H71] | 1.02 | 0.634 | 0.186 | 0.686 | 2.27 | 6.2 | 8.5 | 20.8 | 12.9 | 4.9 | 89.9 | 104 | 106 | 74 | 47.1 | 97.7 | 107 | 100 | 55.3 | 41.1 | 101 | 95.3 | 82.8 | 0.3 | 0.4 | 94.4 | 97.5 | 95.6 | 37.8 | 3.8 | 102 | 105 | 105 | 92.8 | 33.2
6 | COc1ccc([C@@H]2CC(=O)c3c(O)cc(O[C@@H]4O[C@H](CO[C@@H]5O[C@@H](C)[C@H](O)[C@@H](O)[C@H]5O)[C@@H](O)[C@H](O)[C@H]4O)cc3O2)cc1O [hesperidin] | > 10 | > 10 | > 10 | > 10 | > 10 | 0 | 0 | 0.2 | 0 | 0 | 98.3 | 103 | 97.5 | 88.1 | 98.9 | 89.1 | 86.3 | 91.6 | 97.9 | 101 | 99 | 109 | 99.1 | 103 | 83.7 | 97.5 | 97.9 | 102 | 99.7 | 104 | 103 | 102 | 99 | 98.5 | 99.8
7 | O=C(O)CNC(=O)c1ccccc1I [2-iodohippuric-acid] | > 10 | > 10 | > 10 | > 10 | > 10 | 0 | 0 | 0 | 0 | 0 | 103 | 103 | 93.1 | 96.4 | 105 | 101 | 106 | 91.7 | 104 | 91.7 | 101 | 100 | 97.3 | 101 | 91.3 | 100 | 97.6 | 97.8 | 96.7 | 102 | 109 | 107 | 99.1 | 102 | 97.8
8 | C#C[C@]1(O)CC[C@H]2[C@@H]3CCc4cc(O)ccc4[C@H]3CC[C@@]21C [ETHINYL ESTRADIOL] | > 10 | > 10 | – | > 10 | > 10 | 0.2 | 0 | 3 | 0 | 0 | 97.2 | 102 | 99.5 | 99.4 | 85.7 | 100 | 100 | 88.4 | 94.3 | 96.4 | 97.3 | 98 | 99.8 | 90.8 | 65.7 | 97.7 | 105 | 98.8 | 102 | 92.9 | 97.7 | 98.1 | 94.2 | 92.9 | 102
9 | C[C@]12CC[C@H](O)C[C@H]1CC[C@@H]1[C@@H]2CC[C@]2(C)[C@@H](C3=CC(=O)OC3)CC[C@]12O [digitoxigenin] | 0.18 | 0.849 | 0.605 | 0.435 | 0.0448 | 13.5 | 10.5 | 12.4 | 15.2 | 28.4 | 78.9 | 84.9 | 84.1 | 36 | 42.3 | 97.7 | 93.4 | 104 | 50.5 | 17.7 | 118 | 117 | 94.5 | 39.2 | 12.2 | 105 | 105 | 101 | 16.4 | 6.9 | 108 | 97.3 | 13.2 | 0.7 | 0.6
10 | OCCN(CCO)c1nc(N2CCCCC2)c2nc(N(CCO)CCO)nc(N3CCCCC3)c2n1 [dipyridamole] | > 10 | > 10 | > 10 | > 10 | > 10 | 0.3 | 0 | 0 | 0 | 0 | 114 | 98.9 | 102 | 96.2 | 87.1 | 99.1 | 103 | 112 | 96.4 | 104 | 94.2 | 101 | 96.6 | 100 | 96.7 | 103 | 99.2 | 101 | 102 | 99.8 | 104 | 90.1 | 108 | 95 | 95.3
11 | Cc1nc(-c2cccnc2)sc1C(=O)Nc1ccccc1-c1cn2c(CN3CCOCC3)csc2n1 [SRT2104] | > 10 | > 10 | > 10 | > 10 | > 10 | 0 | 0 | 0 | 0 | 0 | 90.6 | 92.2 | 104 | 99.2 | 102 | 93.6 | 98.8 | 102 | 104 | 112 | 100 | 92.8 | 98.8 | 90.6 | 108 | 95.5 | 104 | 94.6 | 101 | 99.2 | 98 | 94.9 | 92.9 | 90.8 | 106
12 | O=C1NCC2(CCN(CCc3ccccc3)CC2)O1 [fenspiride] | > 10 | > 10 | > 10 | > 10 | > 10 | 0 | 0 | 0 | 0 | 0 | 99 | 103 | 91.2 | 101 | 104 | 96.6 | 92.5 | 85 | 92.3 | 98.9 | 96.7 | 107 | 100 | 112 | 103 | 105 | 97.7 | 101 | 99.2 | 108 | 94.9 | 98.3 | 97.9 | 103 | 103
13 | COc1nccnc1NS(=O)(=O)c1ccc(N)cc1 [sulfametopyrazine] | > 10 | > 10 | > 10 | > 10 | > 10 | 0 | 0 | 0 | 0 | 0 | 99.7 | 87.3 | 101 | 89.7 | 102 | 98.5 | 97 | 98.1 | 101 | 102 | 97.6 | 99.7 | 103 | 91.9 | 99.4 | 102 | 95.4 | 104 | 96.8 | 98.9 | 102 | 107 | 95.2 | 100 | 97.5
14 | O=C(NCc1ccc2c(c1)OCO2)c1c(Cl)cccc1Cl [alda-1] | > 10 | > 10 | > 10 | > 10 | > 10 | 0 | 0 | 0 | 0 | 0 | 93 | 91.3 | 100 | 93.1 | 99.1 | 91.7 | 100 | 109 | 102 | 108 | 92 | 105 | 99.8 | 101 | 95.9 | 103 | 99.8 | 99 | 100 | 100 | 94.2 | 105 | 98.8 | 91.2 | 98.3
